Data set [1] in a line: Solubility in organic solvents. It counts as physicochemical.
The nature of the next data set: Thermal stability. The class given is physicochemical. To be noted: stable up to and including this temperature.

Where only a bound is given, the exact number is not on record here.

Turning to `O=C1c2cc3ccccc3c3c2C2=S(S3)Sc3c2c1cc1ccccc31` [TTPO, 5,6,7-Trithiapentacene-13-one], the solubility entry in data set [1] is given as “soluble in a variety of organic solvents”. Also, the thermal stability in “Thermal stability” is no more than 450 °C.

Values taken from patent US8389744B1, “TTPO (5 6,7-trithiapentacene-13-one) and its derivatives: a new class of thermally stable, photooxidatively resistant organic semiconductors” (University of New Hampshire, priority 2011, dated 2013).
